Experimental data reported in US9248202B2, “Two-photon probe for detecting copper(II) ion and quantitative estimation of copper(II) ion in human tissue using the same” (Korea University Research and Business Foundation, priority 2014, dated 2016).

Assay: Fluorescence titration with copper(II) ion (one-photon and two-photon)
Assay type: binding
Protocol: Referring to FIG. 3(b), when small increments of copper(II) ion were added to ACCu2 in EtOH/HEPES (9/1 viv, pH=7.0), the TPEF intensity at the channel 2 (Ired) decreased gradually without any appreciable change at the channel 1 (Iblue).
The dissociation constant (Kd) can be calculated using Equation (2): […]
wherein I is the fluorescence intensity, Ifinal is the fluorescence intensity for the CU^2+-ACCu2 complex and Iinitial is the fluorescence intensity for ACCu2.
The dissociation constants (Kd^OP and Kd^TP) of ACCu2 for the OP and TP processes can be calculated from the fluorescence titration curves shown in FIG. 3(b). […] These indicate 1:1 complexation between the probe and the cation.
Referring to FIG. 5(a), the fluorescence intensities of ACCu2 according to the present disclosure measured by the OP (one-photon) and TP (two-photon) processes decreased by 10-fold in the presence of 200 μM of copper(II) ion. […] This means that quantitative measurement of copper(II) ion is possible in this concentration range. Moreover, the Ired/Iblue ratios determined in the two-photon mode were well fitted by the titration curve obtained in the one-photon mode.

With `COCCOCCOCCOc1ccc2c(ccc3cc(C(=O)N4CCN(C(=O)c5ccc(CNC(=O)c6cc7cc8ccc(N(C)C)cc8cc7oc6=O)nc5)CC4)c(=O)oc32)c1` [ACCu2] the “detection limit for copper ion by TPM” value was 0.84 µM, the “decrease of fluorescence intensity” value (OP and TP processes, in the presence of 200 μM copper(II) ion) was 10 fold and the “copper(II) ion concentration range in which Ired/Iblue plot is linear” value (titration curve FIG. 5(b)) was 0 to 0.25 µM.
